In ChEMBL document CHEMBL5154899, “Spiropyrimidinetrione DNA Gyrase Inhibitors with Potent and Selective Antituberculosis Activity” (J Med Chem, 2022):
≈ marks a conversion by molar mass, not a printed value.

Key:
[1] = target: DNA gyrase subunit A/DNA gyrase subunit B (Mycobacterium tuberculosis (strain ATCC 25618 / H37Rv), UniProt P9WG45+P9WG47); assay: Inhibition of Mycobacterium tuberculosis H37Rv DNA gyrase
DNA gyrase = DNA gyrase (Staphylococcus aureus, UniProt P0A0K8+P20831)
[2] = test system: Mycobacterium tuberculosis; assay: microbe, parasite or virus in culture; details: H37Rv, 192 h
Description: Antibacterial activity against Mycobacterium tuberculosis H37Rv assessed as inhibition of bacterial growth measured after 8 days by Alamar blue reagent based broth microdilution method

Escherichia coli = assay: microbe, parasite or virus in culture; details: ATTC 25922, 192 h
[3] = test system: Mycobacterium tuberculosis; assay: microbe, parasite or virus in culture; details: H37Rv, 264 h
Description: Antibacterial activity against wild type Mycobacterium tuberculosis H37Rv assessed as inhibition of bacterial growth incubated for 11 days

[4] = test system: Mycobacterium tuberculosis; assay: microbe, parasite or virus in culture; details: H37Rv, 264 h; remark: listed apart in the source
Description: Antibacterial activity against Mycobacterium tuberculosis H37Rv gyrA -FDASTetON-1 hypomorph assessed as inhibition of bacterial growth incubated for 11 days

Staphylococcus aureus = assay: microbe, parasite or virus in culture; details: ATTC 25923, 192 h

DNA gyrase subunit A/DNA gyrase subunit B, sequence (P9WG45 whole entry): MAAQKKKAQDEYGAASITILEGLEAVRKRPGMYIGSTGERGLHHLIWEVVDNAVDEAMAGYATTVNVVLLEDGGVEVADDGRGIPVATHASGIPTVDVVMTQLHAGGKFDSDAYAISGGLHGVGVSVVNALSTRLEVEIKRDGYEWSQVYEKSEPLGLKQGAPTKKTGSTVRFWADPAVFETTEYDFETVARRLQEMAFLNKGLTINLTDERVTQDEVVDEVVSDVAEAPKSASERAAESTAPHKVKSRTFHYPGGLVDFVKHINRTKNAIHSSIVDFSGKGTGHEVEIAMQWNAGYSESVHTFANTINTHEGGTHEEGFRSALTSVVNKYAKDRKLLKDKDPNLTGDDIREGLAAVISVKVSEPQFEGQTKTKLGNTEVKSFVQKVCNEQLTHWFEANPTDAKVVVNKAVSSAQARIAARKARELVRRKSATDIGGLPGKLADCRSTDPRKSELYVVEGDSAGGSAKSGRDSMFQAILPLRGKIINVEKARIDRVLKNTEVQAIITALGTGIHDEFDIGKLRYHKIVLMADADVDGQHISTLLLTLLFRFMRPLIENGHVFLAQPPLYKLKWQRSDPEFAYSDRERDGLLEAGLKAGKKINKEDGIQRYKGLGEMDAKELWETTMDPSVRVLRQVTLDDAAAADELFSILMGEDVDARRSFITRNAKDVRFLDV
DNA gyrase subunit A/DNA gyrase subunit B, sequence (P9WG47 whole entry): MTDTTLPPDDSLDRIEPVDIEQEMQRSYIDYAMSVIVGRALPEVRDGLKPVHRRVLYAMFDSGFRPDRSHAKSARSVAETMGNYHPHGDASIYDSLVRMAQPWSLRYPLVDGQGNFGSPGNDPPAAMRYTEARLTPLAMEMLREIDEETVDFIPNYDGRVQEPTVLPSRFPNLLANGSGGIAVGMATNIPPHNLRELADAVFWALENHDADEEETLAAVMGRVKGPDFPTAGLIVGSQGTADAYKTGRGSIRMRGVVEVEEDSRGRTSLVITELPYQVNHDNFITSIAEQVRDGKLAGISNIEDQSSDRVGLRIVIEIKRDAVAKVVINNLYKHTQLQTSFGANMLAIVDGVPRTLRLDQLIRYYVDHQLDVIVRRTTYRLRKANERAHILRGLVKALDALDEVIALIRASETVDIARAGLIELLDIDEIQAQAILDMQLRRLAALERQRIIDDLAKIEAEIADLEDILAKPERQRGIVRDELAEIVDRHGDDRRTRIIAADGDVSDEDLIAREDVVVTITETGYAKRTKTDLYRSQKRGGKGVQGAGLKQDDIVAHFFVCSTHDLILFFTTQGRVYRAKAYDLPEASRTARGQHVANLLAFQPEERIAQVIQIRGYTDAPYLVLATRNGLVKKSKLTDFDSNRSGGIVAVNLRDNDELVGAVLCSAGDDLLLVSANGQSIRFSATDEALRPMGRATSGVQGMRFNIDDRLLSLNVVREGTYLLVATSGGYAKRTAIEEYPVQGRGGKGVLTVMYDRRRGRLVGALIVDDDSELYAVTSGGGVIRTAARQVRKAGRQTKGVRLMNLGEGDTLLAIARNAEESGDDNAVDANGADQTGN
DNA gyrase, sequence (P0A0K8 whole entry): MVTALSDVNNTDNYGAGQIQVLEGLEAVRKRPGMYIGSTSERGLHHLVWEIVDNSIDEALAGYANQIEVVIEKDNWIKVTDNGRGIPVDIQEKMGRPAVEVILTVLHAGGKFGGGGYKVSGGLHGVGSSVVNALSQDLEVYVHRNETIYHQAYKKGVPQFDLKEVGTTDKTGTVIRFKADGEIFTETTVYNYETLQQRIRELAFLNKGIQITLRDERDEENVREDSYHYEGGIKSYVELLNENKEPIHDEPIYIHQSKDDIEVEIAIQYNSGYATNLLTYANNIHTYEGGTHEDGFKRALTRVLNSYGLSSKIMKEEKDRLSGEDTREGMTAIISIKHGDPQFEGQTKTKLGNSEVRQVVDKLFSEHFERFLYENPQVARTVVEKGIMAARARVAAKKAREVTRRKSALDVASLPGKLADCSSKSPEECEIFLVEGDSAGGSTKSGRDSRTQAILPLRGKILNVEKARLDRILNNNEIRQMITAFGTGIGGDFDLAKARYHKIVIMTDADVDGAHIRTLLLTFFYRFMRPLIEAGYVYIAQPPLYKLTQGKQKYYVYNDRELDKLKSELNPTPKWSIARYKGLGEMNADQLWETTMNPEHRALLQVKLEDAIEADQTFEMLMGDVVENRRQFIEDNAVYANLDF
DNA gyrase, sequence (P20831 whole entry): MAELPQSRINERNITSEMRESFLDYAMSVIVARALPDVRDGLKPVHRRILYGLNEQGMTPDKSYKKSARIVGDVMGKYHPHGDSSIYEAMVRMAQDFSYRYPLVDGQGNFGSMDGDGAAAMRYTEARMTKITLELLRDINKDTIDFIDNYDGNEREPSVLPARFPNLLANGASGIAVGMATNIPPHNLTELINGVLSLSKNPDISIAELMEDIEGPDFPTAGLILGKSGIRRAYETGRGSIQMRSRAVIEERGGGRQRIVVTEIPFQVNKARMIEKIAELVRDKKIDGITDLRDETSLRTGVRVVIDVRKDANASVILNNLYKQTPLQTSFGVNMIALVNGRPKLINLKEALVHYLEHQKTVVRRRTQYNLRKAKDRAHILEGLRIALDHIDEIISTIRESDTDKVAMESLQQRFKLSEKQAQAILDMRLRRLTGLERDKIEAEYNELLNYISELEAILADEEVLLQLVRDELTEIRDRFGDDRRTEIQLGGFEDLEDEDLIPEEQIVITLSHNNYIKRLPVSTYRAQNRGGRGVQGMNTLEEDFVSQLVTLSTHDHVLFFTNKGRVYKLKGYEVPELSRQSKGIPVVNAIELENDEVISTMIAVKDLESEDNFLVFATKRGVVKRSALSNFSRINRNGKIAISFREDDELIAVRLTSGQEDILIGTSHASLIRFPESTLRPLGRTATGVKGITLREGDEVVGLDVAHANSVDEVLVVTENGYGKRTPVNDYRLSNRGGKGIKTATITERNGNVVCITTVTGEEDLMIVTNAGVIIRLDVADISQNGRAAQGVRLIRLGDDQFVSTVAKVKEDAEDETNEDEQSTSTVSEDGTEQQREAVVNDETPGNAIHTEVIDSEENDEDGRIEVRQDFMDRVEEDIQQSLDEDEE

Row | Compound | IC50 [1] [µM] | IC50 (DNA gyrase) [µM] | MIC [2] [µM] | MIC (Escherichia coli) [µM] | MIC50 [3] [µM] | MIC99 [3] [µM] | MIC50 [4] [µM] | MIC99 [4] [µM] | MIC (Staphylococcus aureus) [µM]
1 | C[C@@H]1CN2c3c(cc4c(-n5cncn5)noc4c3F)CC3(C(=O)NC(=O)NC3=O)[C@H]2[C@H](C)O1 | 18 | 1.7 | 0.24 (≈ 0.109 µg/mL) | 2 (≈ 0.911 µg/mL) | 1.8 (≈ 0.82 µg/mL) | 3.8 (≈ 1.73 µg/mL) | 0.26 (≈ 0.118 µg/mL) | 0.65 (≈ 0.296 µg/mL) | 
2 | C[C@@H]1CN2c3c(cc4c(-n5cncn5)noc4c3F)CC3(C(=O)NC(=O)NC3=O)[C@H]2[C@H](C)N1C#N |  |  | 0.98 (≈ 0.47 µg/mL) | 63 (≈ 30.2 µg/mL) |  |  |  |  | 16 (≈ 7.67 µg/mL)
3 | C[C@@H]1CN2c3c(cc4c(OCC[C@@H]5CCC(=O)N5)noc4c3F)CC3(C(=O)NC(=O)NC3=O)[C@H]2[C@H](C)O1 |  |  | 3.9 (≈ 2.01 µg/mL) | > 125 |  |  |  |  | 31 (≈ 16 µg/mL)
4 | CN[C@H]1CCN(c2noc3c(F)c4c(cc23)CC2(C(=O)NC(=O)NC2=O)[C@H]2[C@H](C)O[C@H](C)CN42)C1 |  |  | 63 (≈ 30.6 µg/mL) | 125 (≈ 60.8 µg/mL) |  |  |  |  | 125 (≈ 60.8 µg/mL)
5 | C[C@@H]1CN2c3c(cc4c(N5CC[C@H](N)C5)noc4c3F)CC3(C(=O)NC(=O)NC3=O)[C@H]2[C@H](C)O1 | 34 |  | 63 (≈ 29.8 µg/mL) | 125 (≈ 59.1 µg/mL) |  |  |  |  | 125 (≈ 59.1 µg/mL)
6 | C[C@@H]1CN2c3c(cc4c(N5CCC[C@H](O)C5)noc4c3F)CC3(C(=O)NC(=O)NC3=O)[C@H]2[C@H](C)O1 |  |  | 16 (≈ 7.8 µg/mL) |  |  |  |  |  | 94 (≈ 45.8 µg/mL)
7 | C[C@@H]1CN2c3c(cc4c(N5CC[C@@H](O)C5)noc4c3F)CC3(C(=O)NC(=O)NC3=O)[C@H]2[C@H](C)N1C#N |  |  |  |  |  |  |  |  | > 125
8 | C[C@@H]1CN2c3c(cc4c(N5C(=O)OC[C@@H]5C)noc4c3F)CC3(C(=O)NC(=O)NC3=O)[C@H]2[C@H](C)N1C#N |  |  | 3.9 (≈ 1.99 µg/mL) | 3.9 (≈ 1.99 µg/mL) |  |  |  |  | 1 (≈ 0.511 µg/mL)
9 | CO[C@H]1CCN(c2noc3c(F)c4c(cc23)CC2(C(=O)NC(=O)NC2=O)[C@H]2[C@H](C)O[C@H](C)CN42)C1 | 77 |  | 31 (≈ 15.1 µg/mL) | > 125 |  |  |  |  | > 125
10 | C[C@@H]1CN2c3c(cc4c(N5CC[C@H](O)C5)noc4c3F)CC3(C(=O)NC(=O)NC3=O)[C@H]2[C@H](C)N1C#N |  | 3.1 | 7.8 (≈ 3.88 µg/mL) | > 125 | 5.35 (≈ 2.66 µg/mL) | 10.3 (≈ 5.12 µg/mL) | 1.75 (≈ 0.871 µg/mL) | 5.05 (≈ 2.51 µg/mL) | 
11 | C[C@@H]1CN2c3c(cc4c(OC[C@@H]5CCC(=O)O5)noc4c3F)CC3(C(=O)NC(=O)NC3=O)[C@H]2[C@H](C)O1 |  |  | 2 (≈ 1 µg/mL) | > 125 |  |  |  |  | 3.9 (≈ 1.96 µg/mL)
12 | C[C@@H]1CN2c3c(cc4c(OC[C@H]5CCC(=O)N5)noc4c3F)CC3(C(=O)NC(=O)NC3=O)[C@H]2[C@H](C)O1 |  |  | > 125 |  |  |  |  |  | 
13 | Cc1nnc(-c2noc3c(F)c4c(cc23)CC2(C(=O)NC(=O)NC2=O)[C@H]2[C@H](C)N(C#N)[C@H](C)CN42)o1 |  |  | 1.5 (≈ 0.742 µg/mL) | > 125 |  |  |  |  | > 125
14 | Cc1nnc(-c2noc3c(F)c4c(cc23)CC2(C(=O)NC(=O)NC2=O)[C@H]2[C@H](C)[C@@H](O)[C@H](C)CN42)o1 |  |  | 16 (≈ 7.75 µg/mL) | > 250 |  |  |  |  | > 250
15 | C[C@@H]1CN2c3c(cc4c(N5C(=O)OC[C@@H]5C)noc4c3F)CC3(C(=O)NC(=O)NC3=O)[C@H]2[C@H](C)N1CC#N |  |  | > 125 | > 125 |  |  |  |  | > 125
16 | C[C@@H]1CN2c3c(cc4c(N5CC[C@H](CO)C5)noc4c3F)CC3(C(=O)NC(=O)NC3=O)[C@H]2[C@H](C)O1 | 18 |  | 16 (≈ 7.8 µg/mL) | > 125 |  |  |  |  | > 125
17 | C[C@@H]1CN2c3c(cc4c(OC[C@H]5CCC(=O)O5)noc4c3F)CC3(C(=O)NC(=O)NC3=O)[C@H]2[C@H](C)O1 |  |  | 3.9 (≈ 1.96 µg/mL) | > 250 |  |  |  |  | > 250
18 | C[C@@H]1CN2c3c(cc4c(N5CC[C@H](C#N)C5)noc4c3F)CC3(C(=O)NC(=O)NC3=O)[C@H]2[C@H](C)O1 | 10 |  | 4 (≈ 1.93 µg/mL) | 31 (≈ 15 µg/mL) |  |  |  |  | > 125
19 | C[C@@H]1CN2c3c(cc4c(N5C(=O)OC[C@@H]5C)noc4c3F)CC3(C(=O)NC(=O)NC3=O)[C@H]2[C@H](C)N1 |  |  | > 125 | 31 (≈ 15.1 µg/mL) |  |  |  |  | 63 (≈ 30.6 µg/mL)
20 | C[C@@H]1CN2c3c(cc4c(OC[C@@H]5CCC(=O)N5C)noc4c3F)CC3(C(=O)NC(=O)NC3=O)[C@H]2[C@H](C)O1 |  |  | 3.9 (≈ 2.01 µg/mL) | 63 (≈ 32.5 µg/mL) |  |  |  |  | 63 (≈ 32.5 µg/mL)
21 | C[C@@H]1CN2c3c(cc4c(N5CC[C@@](C)(O)C5)noc4c3F)CC3(C(=O)NC(=O)NC3=O)[C@H]2[C@H](C)O1 |  |  | > 250 | > 250 |  |  |  |  | > 250
